From paper PMC12030284, “Anti-Breast Cancer Properties and In Vivo Safety Profile of a Bis-Carbazole Derivative” (Pharmaceutics, 2025) come the findings set out here.

In experiment [1] the test system is MDA-MB-231 human breast cancer cells. Kind of experiment: MTT cell viability assay, MDA-MB-231. The note with it: Homo sapiens, MDA-MB-231; MTT, 72 h, mean ± SD of three experiments. It counts as cell-based. Here is the method:
(§1) The three cell lines adopted in this work (MCF-7, MDA-MB-231 and MCF-10A) were obtained from the American Type Culture Collection (ATCC, Manassas, VA, USA). MCF-7 human breast cancer cells were cultured in Dulbecco’s modified Eagle’s medium/nutrient mixture Ham F-12 (DMEM/F12), added with 10% fetal bovine serum (FBS) and 100 U mL^−1 penicillin/streptomycin. MDA-MB-231 human breast cancer cells were maintained in DMEM/F12 added with 5% FBS, 1% L-glutamine and 100 U mL^−1 penicillin/streptomycin. MCF-10A human mammary epithelial cells were cultured in DMEM/F12 medium added with 5% horse serum (HS, Thermo Fisher Scientific, Milan, Italy), 100 U mL^−1 penicillin/streptomycin, 0.5 mg mL^−1 hydrocortisone, 20 ng mL^−1 human epidermal growth factor (hEGF), 10 mg mL^−1 insulin, and 0.1 mg mL^−1 cholera enterotoxin (Sigma–Aldrich, Milan, Italy). Cells were cultured at 37 °C in a humidified atmosphere (95% air and 5% CO2) and periodically screened for checking contamination.
(§2) The 3-(4,5-dimethylthiazol-2-y1)-2,5-diphenyltetrazolium Bromide (MTT, Sigma–Aldrich, Milan, Italy) assay was used for determining cell viability. Cells were seeded on forty-eight well plates and cultured in a complete medium. Next, cells were serum-deprived (24 h). Then, cells were exposed to the tested compounds in phenol-red-free medium added with 1% of serum for 72 h. After medium removal, MTT solution was added to each well (0.5 mg/mL) and incubated at 37 °C (2 h). Cells were lysed (DMSO), and the optical density was measured (570 nm) using a microplate reader. Mean absorbance was reported as a percentage versus control, and IC50 values were calculated using GraphPad Prism 8 software (version 8.4.3., GraphPad Inc., San Diego, CA, USA). The selectivity index was obtained by the ratio of IC50 values calculated for normal and cancer cells. Data represent three independent experiments; standard deviations (SD) were reported.

Experiment [2] has as its system MCF-10A human mammary epithelial cells. Kind of experiment: MTT cell viability assay, MCF-10A. It counts as cell-based. As to conditions: 72 h, normal cells, mean ± SD of three experiments. The procedure:
as §1, §2

The subject of experiment [3] is MCF-7 human breast cancer cells. The experiment in a line: MTT cell viability assay, MCF-7. The format is cell-based. As to conditions: for IC50: Homo sapiens, MCF7, MTT, 72 h, mean ± SD of three experiments; for SI MCF-7: ratio of IC50 values for normal (MCF-10A) and cancer cells (MCF-7). The procedure: as §1, §2
(In general: Tetrazolium dyes change colour on reduction, which living cells bring about.)

Another experiment has as its system tubulin. The experiment in a line: In vitro tubulin polymerization assay. It counts as biochemical. As to conditions: 10 µM; for final OD350 value of tubulin polymerization: control reaction (DMSO) about 0.41. Here is the method: The tubulin polymerization inhibition was detected using the in vitro Tubulin Polymerization Assay Kit (EMD Millipore Corporation, Burlington, MA, USA), following the procedure previously published. Briefly, polymerization reactions were performed in 70 µL final volumes (60 µL of the 60 µM tubulin in 1xPB-GTP and 10 µL of the test substance dissolved in 1xPB-GTP). Paclitaxel and Vinblastine (both at 10 µM) and 1 (1 µM) were dissolved in DMSO. The turbidity variation was measured every 30 s at 350 nm for 90 min. Turbidity (absorbance) readings were used to determine the extent of polymerization [% inhibition = (1 − A350 sample/A350 control) × 100].

Experiment [4] has as its system microtubule network in MDA-MB-231 cells. The experiment in a line: β-tubulin immunofluorescence. The format is cell-based, human. The note with it: 1 µM, 24 h. The procedure:
Cells grown on glass coverslips in full medium were serum-deprived for 24 h and exposed to 1 for 24 h at its IC50 value concentration. Cells were PBS-washed and fixed (cold methanol, 15 min, −20 °C), then primary antibody in blocking solution was added (4 °C/overnight), as described. The mouse anti-Bid (sc-373939) and anti-β-Actin (69879) and the rabbit anti-β Tubulin (9104) were obtained from Santa Cruz Biotechnology and employed at a 1:100 dilution. Coverslips were washed thrice with PBS, then the secondary antibody Alexa Fluor® 568 conjugate goat-anti-mouse and Alexa Fluor® 488 conjugate goat-anti-rabbit (1:500, Thermo Fisher Scientific, Waltham, MA, USA) was added. Nuclei were DAPI (Sigma Aldrich, Mila, Italy) stained (10 min, 0.2 μg/mL) and PBS washed thrice. For mitochondrial staining, cells were pre-incubated with prewarmed (37 °C) MitoTracker® Deep Red FM probe solution (MitoTracker® Mitochondrion-Selective Probes, Invitrogen European Headquarters, Paisley PA4 9RF, UK) for 20 min (fluorescence excitation = 644, fluorescence emission = 665). A fluorescence microscope (Leica DM 6000) and LAS-X software (Leica Application Suite X, 3.5.7.23225) were used to acquire and process all images.

Broadly, the IC50 is the concentration that inhibits the measured activity by half. As to `Cc1c2ccncc2c(C)c2c1[nH]c1ccccc12` [Ellipticine], the figures for the IC50 in experiment [1], in experiment [2] and in experiment [3] were 1900 ± 100 nM, 1200 ± 300 nM and 1300 ± 200 nM, respectively. Further, in experiment [3], the “SI MCF-7” value was 0.9.
For `CC(=O)O[C@H]1C(=O)[C@@]2(C)[C@H]([C@H](OC(=O)c3ccccc3)[C@]3(O)C[C@H](OC(=O)[C@H](O)[C@@H](NC(=O)c4ccccc4)c4ccccc4)C(C)=C1C3(C)C)[C@]1(OC(C)=O)CO[C@@H]1C[C@@H]2O` [Paclitaxel], the figures for the IC50 in experiment [1], in experiment [2] and in experiment [3] were 19 nM, 640 nM and 13 nM, respectively. Moreover, the “final OD350 value of tubulin polymerization” value with tubulin is on record as “about 0.46”. In addition, the “SI MCF-7” value in experiment [3] is reported as 33.7. The microtubule network morphology entry in experiment [4] was “massive formation of tubulin bundles and bulker fibers”.
In experiment [1], `CC[C@]1(O)C[C@@H]2CN(CCc3c([nH]c4ccccc34)[C@@](C(=O)OC)(c3cc4c(cc3OC)N(C)[C@H]3[C@@](O)(C(=O)OC)[C@H](OC(C)=O)[C@]5(CC)C=CCN6CC[C@]43[C@@H]65)C2)C1` [Vinblastine] displayed an IC50 of 130 nM. In the experiment with tubulin, the “effect on tubulin polymerization reaction” value is “strongly inhibited”, the “time to reach the steady state of tubulin polymerization” value lay in the range of 35 to 40 min and the “final OD350 value of tubulin polymerization” value is on record as “about 0.2”. This compound also had an IC50 in experiment [2] of 17.2 nM. Besides, in experiment [3], the IC50 was 36.8 nM and the “SI MCF-7” value is given as 0.13. Also, the microtubule network morphology result in experiment [4] is recorded as “accumulate in disorganized dotted structures (i.e., crystals)”.
